The text below walks through data of patent US20010018209A1, “Cell compositions” (Takara Shuzo Co., Ltd., priority 1996, published 2001).

One data set has as its system mouse. Put plainly: Toxicity on administration to mouse (general statement). To be noted: in vivo.
The next data set deals with cancer cells. Description: Apoptosis after addition to a culture broth of cancer cells (general statement). It is filed as cell-based. To be noted: within one to several days after addition.
Data set [1] has as its system HL-60 cells. Description: Cell growth inhibitory activity, MTT, observed under a microscope. It is filed as cell-based. To be noted: 48 hours. The procedure:
(§1) (3) The fibroblasts, NIH/3T3 cells (ATCC CRL-1658), were dispersed with trypsin according to a conventional method and suspended in Dulbecco modified Eagle's culture medium containing 10% bovine serum at a concentration of 5× 10^4 cells/ml. Then, each 90 μl portion thereof was distributed into each well of a 96-well microtiter plate. To each well was added an aqueous solution (10 μl) of 15.6, 31.3, 62.5, 125, 250, 500 or 1,000 μM cyclopentenone, or water (10 μl) as a control and the cells on that plate were incubated at 37° C. for 48 hours in the presence of 5% CO2. Further, 5 mg/ml MTT phosphate buffered saline (10 μl) was added and the incubation was continued for additional 4 hours. Cell growth was observed under a microscope and the apoptosis inducing activity was estimated as cell growth inhibitory activity.
The same procedure was repeated with respect to HL-60 cells except that the cells were cultured in RPMI1640 culture medium containing 10% fetal bovine serum.

The subject of another data set is normal cells. Put plainly: Toxicity / apoptosis against normal cells (general statement). It is filed as cell-based.
For data set [2], the system named is fibroblasts, NIH/3T3 cells (ATCC CRL-1658). Put plainly: Cell growth inhibitory activity, MTT, observed under a microscope. Type of data set: cell-based. To be noted: 48 hours. The procedure:
as §1

Data set [3] relates to HL-60 cells. Description: Cell growth inhibitory activity by MTT, absorbance at 590 nm (HL-60 compared with HUVEC). Type of data set: cell-based. To be noted: final 1-100 μM, 48 hours.
Data set [4] relates to Myeloma cells (P3X63Ag8U.1, ATCC CRL-1597). Description: Apoptosis induction / living cell number in cultured myeloma cells (trypan blue, microscope). To be noted: 1 mg/ml, 60 hours. It is filed as cell-based. Here is the method: Myeloma cells (P3X63Ag8U.1, ATCC CRL-1597) were cultured at 37° C. in RPMI1640 culture medium (manufactured by Gibco) containing 10% fetal bovine serum (manufactured by JRH Bioscience) treated at 56° C. for 30 minutes and they were suspended in RPMI1640 culture medium containing 10% fetal bovine serum at a concentration of 2.5×10^5 cells/4.5 ml. On the other hand, a dextran sulfate (molecular weight: 0.5 million, manufactured by Oncor) was dissolved in 50 mM HEPES buffer (pH 7.0) containing 120 mM sodium chloride at a concentration of 10 mg/ml and sterilized by filtration. This solution (0.5 ml) was added to the above suspension (4.5 ml) and incubated at 37° C. for 60 hours in the presence of 5% CO2.
The incubated cells were observed under a microscope to examine the degree of growth and cell morphology. […] After initiation of incubation, the living cell number was counted with time by trypan blue staining.
Next, A dextran sulfate (molecular weight: 0.5 million, manufactured by Oncor) was dissolved in 50 mM HEPES buffer (pH 7.0) containing 120 mM sodium chloride in concentration of 10 mg/ml, and treated by heating at 120° C. for 20 minutes. According to the same manner as described above, apoptosis inducing activity was determined by using the dextran sulfate.

Regarding `O=C1C=CC(O)C1O` (centres unmarked) [cyclopentenone, 4,5-dihydroxy-2-cyclopenten-1-one], the toxicity in mouse result in the data set with mouse was “does not show any toxicity against mouse”. In addition, the “apoptosis of cancer cells” value in the data set on cancer cells is given as “apoptosis of the cancer cells is caused”. The “selectivity, tumor cell line HL-60 compared with non-tumor cell line NIH/3T3” value with HL-60 cells [1] was “selective cell growth inhibitory activity and cytocidal activity”. Besides, the cell growth entry with HL-60 cells [1] (final concentration of 6.25 μM) is on record as “no cell growth was observed”; in data set [2] (final concentration of 12.5 μM), “the same cell growth as that of the water-added control group”; in data set [2] (final concentration of 25 μM), “no cell growth was observed”. For the same molecule, in the data set with HL-60 cells [1] (final concentration of 6.25 μM), the cytocidal effect entry is “almost all the cells were killed”. The “toxicity against normal cells” value in the data set with normal cells is given as “does not show any toxicity against normal cells”. Besides, in the data set with HL-60 cells [3], the “cell growth inhibitory activity, HL-60 compared with HUVEC” value is on record as “stronger cell growth inhibitory activity to the cancer cells, HL-60 cells than that to the normal cells, HUVEC cells”.
Take dextran sulfate: in data set [4], the apoptosis inducing activity entry is “strong apoptosis inducing activity” and the “cell morphology under a microscope (characteristics of apoptosis)” value is “exhibited characteristics of apoptosis such as cell shrinkage, cell nuclear fragmentation”.
